Experimental data published in paper PMC5107130 (Pharmacological Research, 2016).
“And” between values parts separate entries of the source, which are not always exact repeats. Equal entries are not always repeated. “Also recorded” adds a separate entry of the source. Where two headings read alike, the source gives them in different places.

Legend:
[1] = tested on: HCT116 cells; test: Cell proliferation, xCELLigence system; assay type: cell-based, human; details: Cell Index, 48 h, concentration in the value
[2] = Counterscreen: AzMC fluorescence signal generated by the H2S donor GYY4137; details: mean ± SEM, n = 3
[3] = target: T1, Recombinant full length human CBS (Homo sapiens, UniProt P35520); test: Methylene blue assay of CBS-derived H2S; assay type: biochemical; details: read-out: % inhibition of CBS-induced methylene blue signal
T1 sequence (P35520 1-551): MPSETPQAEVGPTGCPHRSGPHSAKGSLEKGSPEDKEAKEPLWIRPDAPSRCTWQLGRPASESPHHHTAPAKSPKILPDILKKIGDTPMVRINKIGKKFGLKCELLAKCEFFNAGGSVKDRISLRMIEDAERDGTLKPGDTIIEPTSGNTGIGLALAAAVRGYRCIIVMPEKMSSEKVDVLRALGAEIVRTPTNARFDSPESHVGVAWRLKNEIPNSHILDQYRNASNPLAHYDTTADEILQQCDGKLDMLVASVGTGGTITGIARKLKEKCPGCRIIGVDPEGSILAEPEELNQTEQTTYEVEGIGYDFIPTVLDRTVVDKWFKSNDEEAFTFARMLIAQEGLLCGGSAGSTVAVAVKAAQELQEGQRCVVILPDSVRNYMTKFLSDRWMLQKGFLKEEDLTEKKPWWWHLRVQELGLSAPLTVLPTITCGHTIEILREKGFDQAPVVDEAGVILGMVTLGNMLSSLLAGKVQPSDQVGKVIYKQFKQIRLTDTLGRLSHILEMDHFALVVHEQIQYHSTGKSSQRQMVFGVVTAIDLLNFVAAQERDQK

[4] = target: T1, Recombinant full length human CBS; test: AzMC fluorescence assay of CBS-derived H2S production; assay type: biochemical; details: for Confirmation (% inhibition of CBS-induced AzMC fluorescence) / % inhibition of CBS-induced AzMC fluorescence: mean ± SEM, n = 3; for % inhibition of CBS-induced AzMC fluorescence: copper compounds
[5] = tested on: HCT116 cells; test: Cytotoxicity, lactate dehydrogenase; assay type: cell-based, human; details: 48 h
[6] = read-out: % inhibition of CBS-induced AzMC fluorescence, 10 μM, mean ± SEM, n = 3
[7] = read-out: % inhibition of CBS-induced AzMC fluorescence, 100 μM, mean ± SEM, n = 3
[8] = read-out: Confirmation (% inhibition of CBS-induced AzMC fluorescence), 30 μM, mean ± SEM, n = 3
[9] = read-out: Initial screen (% inhibition of CBS-induced AzMC fluorescence), 30 μM
[10] = read-out: Confirmation (% inhibition of CBS-induced AzMC fluorescence)
[11] = read-out: Initial screen (% inhibition of CBS-induced AzMC fluorescence)
[12] = read-out: IC50, inhibition of recombinant CBS (CBS-induced AzMC fluorescence), cell-free, 2 mM L-cysteine and homocysteine
[13] = read-out: % inhibition of recombinant CBS activity

Row | inhibition at 30 µM [4, 8] [%] | inhibition at 30 µM [4, 9] [%] | Initial screen (% inhibition of CBS-induced AzMC fluorescence) ([4]; 30 μM) | Confirmation (% inhibition of CBS-induced AzMC fluorescence) ([4]; 30 μM) | Compound | Confirmation (% inhibition of GYY4137-induced AzMC fluorescence) ([2]; 30 μM) | other results
1 | 87 ± 1 | 59 |  |  | O=C(O)C1=CC(=C(c2ccc(O)c(C(=O)O)c2)c2ccc(O)c(C(=O)O)c2)C=CC1=O [Aurintricarboxylic acid] | −2 ± 1% | Effect on HCT116 cell proliferation (words) [1]: did not inhibit cell proliferation at 10–100 μM; also recorded: at 300 μM increased cell proliferation; Effect on HCT116 cell proliferation (words) ([1]; listed as aurintricarboxylic acid): stimulated cell proliferation at 300 μM; % inhibition of GYY4137-induced AzMC fluorescence ([2]; 10 μM): −3 ± 2%; % inhibition of GYY4137-induced AzMC fluorescence ([2]; 100 μM): 6 ± 1%; inhibition at 10 µM [3]: 38 ± 2%; inhibition at 30 µM [3]: 61 ± 1%; inhibition at 100 µM [3]: 72 ± 1%; IC50 [4]: ~3000 nM; inhibition at 10 µM [4, 6]: 72 ± 1%; inhibition at 100 µM [4, 7]: 94 ± 1%
2 | 53 ± 1 | 49 |  |  | COC1=C(OC)C(=O)c2ccccc2C1=O [2,3-Dimethoxy-1,4-naphthoquinone] | 51 ± 4% | 
3 | 55 ± 4 | 48 |  |  | O=C(N/N=C/c1ccc([N+](=O)[O-])o1)c1ccc(O)cc1 [Nifuroxazide] | 50 ± 2% | 
4 |  |  | 69% | 58 ± 4% | O=S(=O)([O-])c1cc(N=C=S)ccc1C=Cc1ccc(N=C=S)cc1S(=O)(=O)[O-].[Na+].[Na+] [DIDS, 4,4′-diisothiocyanostilbene-2,2′-sufonic acid sodium salt] | 56 ± 5% | 
5 |  |  | 49% | 42 ± 1% | N#C/C(=C\c1ccc(O)c(O)c1)C(=O)NCCCNC(=O)/C(C#N)=C/c1ccc(O)c(O)c1 [Tyrphostin AG 537] | 48 ± 2% | 
6 | 75 ± 3 | 68 |  |  | CC(=O)[C@H]1CC[C@H]2[C@@H]3CCC4=CC(=O)CC[C@]4(C)[C@H]3CC[C@]12C [Progesterone] | 64 ± 1% | 
7 | 59 ± 3 | 55 |  |  | Cc1cc2nc3c(=O)[nH]c(=O)nc-3n(C)c2cc1C=O [Ro-08-2750, 2,3,4,10-Tetrahydro-7,10-dimethyl-2,4-dioxobenzo[g]pteridine-8-carboxaldehyde] | 69 ± 8% | 
8 | 54 ± 2 | 52 |  |  | NC(=O)N/N=C/c1ccc([N+](=O)[O-])o1 [Nitrofurazone] | 48 ± 5% | 

The remaining lines, values behind:

Row | Compound | inhibition at 30 µM [4, 8] [%] | inhibition at 30 µM [4, 9] [%] | Initial screen (% inhibition of CBS-induced AzMC fluorescence) ([4]; 30 μM) | Confirmation (% inhibition of CBS-induced AzMC fluorescence) ([4]; 30 μM) | Confirmation (% inhibition of GYY4137-induced AzMC fluorescence) ([2]; 30 μM) | other results
9 | C[C@@](Cc1ccc(O)c(O)c1)(NN)C(=O)O [Carbidopa] |  |  |  |  |  | inhibition at 100 µM ([4]; read-out: % inhibition of recombinant CBS activity, 100 μM, standard assay conditions, freshly dissolved): 6%
10 | O=C1C=CC(=O)c2c(O)cccc21 [Juglone] |  |  |  |  | 61 ± 3% | 
11 | COc1cc2cc3c4c(cc(OC)c(OC)c4c2cc1OC)CCN3C [Dehydroglaucine] |  |  |  |  |  | Confirmation (% inhibition of GYY4137-induced AzMC fluorescence) ([2]; 17 μM): 57 ± 8 (17 μM) %; Initial screen (% inhibition of CBS-induced AzMC fluorescence) ([4]; 17 μM): 62% (17 μM); Confirmation (% inhibition of CBS-induced AzMC fluorescence) ([4]; 17 μM): 82 ± 4 (17 μM) %
12 | NC(N)=NC(=O)c1nc(Cl)c(N2CCCCCC2)nc1N [5-(N,N-hexamethylene)amiloride] |  |  | 72% | 58 ± 3% | 54 ± 4% | 
13 | Chlorophyllide Cu complex Na salt |  |  | 80% | 97 ± 1% | 78 ± 3% | Initial screen (% inhibition of CBS-induced AzMC fluorescence) ([4]; 30 μM, listed as Chlorophyllide cu complex Na salt): 82%
14 | Cc1cc(C(C#N)c2ccc(Cl)cc2)c(Cl)cc1NC(=O)c1cc(I)cc(I)c1O (stereo not shown) [Closantel] |  |  |  |  | 31 ± 2% | inhibition at 30 µM [4, 10]: 25 ± 5%; inhibition at 30 µM [4, 11]: 43%
15 | CC1=C(C2=C(C)C(=O)c3c(c(C=O)c(O)c(O)c3C(C)C)C2=O)C(=O)c2c(C=O)c(O)c(O)c(C(C)C)c2C1=O [Gossypolone] |  |  |  |  |  | Confirmation (% inhibition of GYY4137-induced AzMC fluorescence) ([2]; 12 μM): 25 ± 4 (12 μM) %; inhibition at 12 µM [4, 10]: 30 ± 5%; inhibition at 12 µM [4, 11]: 57%
16 | Verteporfin |  |  | 69% | 41 ± 5% | 38 ± 5% | 
17 | O=C1C(SCCO)=C(SCCO)C(=O)c2ccccc21 [NSC 95397, 2,3bis[(2-Hydroxyethyl)thio]-1,4-naphthoquinone] | 58 ± 8 | 68 | 70% | 59 ± 8% | 58 ± 1% | 
18 | O=[N+]([O-])[O-].O=[N+]([O-])[O-].[Cu+2] [Cu(NO2)2, copper(II) nitrate] |  |  |  |  |  | IC50 [4, 12]: ~200 nM
19 | N.N.N.N.N.N.N.N.N.N.N.N.N.N.[Cl-].[Cl-].[Cl-].[Cl-].[Cl-].[Cl-].[O-2].[O-2].[Ru+3].[Ru+3].[Ru+4] [Ruthenium red] |  |  | 72% | 72 ± 6% | 72 ± 3% | 
20 | NNCc1cccc(O)c1 [3-hydroxybenzylhydrazine] |  |  |  |  |  | inhibition at 10 µM [4, 13]: 24%; inhibition at 30 µM [4, 13]: 37%; inhibition at 100 µM [4, 13]: 68%
21 | CC(C)/N=c1\cc2n(-c3ccc(Cl)cc3)c3ccccc3nc-2cc1Nc1ccc(Cl)cc1 [Clofazimine] | 30 ± 7 | 47 |  |  | 28 ± 5% | 
22 | O=C(OC[C@H]1O[C@@H](OC(=O)c2cc(O)c(O)c(OC(=O)c3cc(O)c(O)c(O)c3)c2)[C@H](OC(=O)c2cc(O)c(O)c(OC(=O)c3cc(O)c(O)c(O)c3)c2)[C@@H](OC(=O)c2cc(O)c(O)c(OC(=O)c3cc(O)c(O)c(O)c3)c2)[C@@H]1OC(=O)c1cc(O)c(O)c(OC(=O)c2cc(O)c(O)c(O)c2)c1)c1cc(O)c(O)c(OC(=O)c2cc(O)c(O)c(O)c2)c1 [Tannic acid, 2,3-dihydroxy-5-({[(2R,3R,4S,5R,6R)-3,4,5,6-tetrakis({3,4-dihydroxy-5-[(3,4,5-trihydroxyphenyl)carbonyloxy]phenyl}carbonyloxy)oxan-2-yl]methoxy}carbonyl)phenyl 3,4,5-trihydroxybenzoate] | 43 ± 1 | 73 |  |  | 3 ± 2% | Cytotoxicity / LDH release in HCT116 cells [5]: without signs of cytotoxicity; Effect on HCT116 cell proliferation (words) [1]: concentration-dependently inhibited proliferation, starting with 10 μM; also recorded: complete inhibition was seen at 100 μM; % inhibition of GYY4137-induced AzMC fluorescence ([2]; 10 μM): −1 ± 1%; % inhibition of GYY4137-induced AzMC fluorescence ([2]; 30 μM): 3 ± 2%; % inhibition of GYY4137-induced AzMC fluorescence ([2]; 100 μM): 8 ± 3%; inhibition at 10 µM [3]: 24 ± 9%; inhibition at 30 µM [3]: 46 ± 3%; inhibition at 100 µM [3]: 56 ± 3%; IC50 [4]: ~40000 nM; inhibition at 10 µM [4, 6]: 28 ± 2%; inhibition at 30 µM ([4]; read-out: % inhibition of CBS-induced AzMC fluorescence, 30 μM, mean ± SEM, n = 3): 43 ± 1%; inhibition at 100 µM [4, 7]: 75 ± 1%
23 | CC(=O)[O][Hg][c]1ccccc1 [Phenylmercuric acetate] |  |  | 69% and 52% | 50 ± 6% and 29 ± 4% | 59 ± 2% and 32 ± 4% | 
24 | Cc1cc(/C=C/c2ccc3cc(N(C)C)ccc3[n+]2C)c(C)n1-c1ccccc1 [Pyrvinium pamoate] |  | 49 |  |  | 36 ± 3% | 
25 | CC(=O)[O-].CC(=O)[O-].[Cu+2] [CuAc, copper(II) acetate] |  |  |  |  |  | % inhibition of GYY4137-induced AzMC fluorescence ([2]; copper compounds, 0.1 μM): 2 ± 2%; % inhibition of GYY4137-induced AzMC fluorescence ([2]; copper compounds, 0.3 μM): 12 ± 1%; % inhibition of GYY4137-induced AzMC fluorescence ([2]; copper compounds, 1 μM): 17 ± 1%; % inhibition of CBS-induced AzMC fluorescence ([4]; 0.1 μM): 39 ± 1%; % inhibition of CBS-induced AzMC fluorescence ([4]; 0.3 μM): 66 ± 1%; % inhibition of CBS-induced AzMC fluorescence ([4]; 1 μM): 92 ± 1%; IC50 [4, 12]: ~200 nM
26 | O=Nc1ccc(O)c2ncccc12 [NSC 3852, 5-Nitroso-8-quinolinol] | 48 ± 5 | 58 |  |  | 47 ± 5% | 
